Assay results from the supplement of paper PMC10307832.

What was measured:
Experiment in all cases: relative viability (nuclei count vs DMSO), 5 days (fraction); higher = more cells survive
[1] = compound: Nc1ccccc1NC(=O)c1ccc(CNC(=O)OCc2cccnc2)cc1 [Entinostat] + CS(=O)(=O)N1CCN(Cc2cc3nc(-c4cccc5[nH]ncc45)nc(N4CCOCC4)c3s2)CC1 [Pictilisib] (partner 1 µM)
Method in brief: (§1)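 After 5 days of treatment, lung cancer cells in 1536-well plates were fixed and stained in a single step (final 0.05% Triton X-100, 1% formaldehyde, 1 ug/ml Hoechst) and their nuclei counted on 4× images. Treatment had been applied by pin tool the day after seeding as one drug alone or as a fixed anchor-drug dose with five library-drug doses (not always all listed) in √10 steps. Relative viability is the nuclei count of treated wells divided by that of vehicle wells, and values are medians of duplicate plates.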

[2] = compound: CN1CCC(CNc2ccc3ncc(-c4cccc(OC(F)(F)F)c4)n3n2)CC1 [SGI-1776] + CS(=O)(=O)N1CCN(Cc2cc3nc(-c4cccc5[nH]ncc45)nc(N4CCOCC4)c3s2)CC1 [Pictilisib] (partner 1 µM)
Method in brief: as §1

[3] = compound: C1COCCN1C2=NC(=NC3=C2OC4=C3C=CC=N4)C5=CC(=CC=C5)NC(=O)C6=CN=C(C=C6)N + Nc1ncn([C@H]2C[C@H](O)[C@@H](CO)O2)c(=O)n1 [Decitabine] (partner 2 µM)
Method in brief: as §1

[4] = compound: C1COCCN1C2=NC(=NC3=C2OC4=C3C=CC=N4)C5=CC(=CC=C5)NC(=O)C6=CN=C(C=C6)N + CS(=O)(=O)N1CCN(Cc2cc3nc(-c4cccc5[nH]ncc45)nc(N4CCOCC4)c3s2)CC1 [Pictilisib] (partner 1 µM)
Method in brief: as §1

Cell Line | relative viability ([1]; first compound 0.02 µM) | relative viability ([1]; first compound 0.06325 µM) | relative viability ([1]; first compound 0.2 µM) | relative viability ([1]; first compound 0.6325 µM) | relative viability ([1]; first compound 2 µM) | relative viability ([2]; first compound 0.08 µM) | relative viability ([2]; first compound 0.8 µM) | relative viability ([2]; first compound 2.53 µM) | relative viability ([2]; first compound 8 µM) | relative viability ([3]; first compound 0.02 µM) | relative viability ([3]; first compound 0.06325 µM) | relative viability ([3]; first compound 0.2 µM) | relative viability ([3]; first compound 0.6325 µM) | relative viability ([3]; first compound 2 µM) | relative viability ([4]; first compound 0.02 µM) | relative viability ([4]; first compound 0.06325 µM) | relative viability ([4]; first compound 0.2 µM) | relative viability ([4]; first compound 0.6325 µM) | relative viability ([4]; first compound 2 µM)
NCI-H650 | 0.934 | 0.914 | 0.75 | 0.579 | 0.269 | 0.958 | 0.731 | 0.868 | 0.644 | 0.315 | 0.361 | 0.333 | 0.443 | 0.494 | 0.948 | 0.947 | 0.861 | 0.77 | 0.741
NCI-H661 | 0.47 | 0.614 | 0.559 | 0.565 | 0.407 | 0.526 | 0.429 | 0.363 | 0.317 | 0.593 | 0.578 | 0.603 | 0.63 | 0.444 | 0.441 | 0.395 | 0.392 | 0.375 | 0.163
NCI-H1734 | 0.454 | 0.513 | 0.459 | 0.41 | 0.289 | 0.468 | 0.472 | 0.396 | 0.332 | 0.534 | 0.575 | 0.482 | 0.537 | 0.484 | 0.466 | 0.494 | 0.429 | 0.443 | 0.355
EKVX | 0.441 | 0.517 | 0.36 | 0.298 | 0.217 | 0.421 | 0.453 | 0.455 | 0.379 | 0.335 | 0.321 | 0.325 | 0.383 | 0.567 | 0.408 | 0.408 | 0.44 | 0.379 | 0.439
NCI-H520 | 0.327 | 0.284 | 0.32 | 0.282 | 0.275 | 0.319 | 0.323 | 0.225 | 0.204 | 0.47 | 0.521 | 0.588 | 0.55 | 0.44 | 0.302 | 0.327 | 0.274 | 0.293 | 0.179
LOU-NH91 | 0.522 | 0.529 | 0.549 | 0.452 | 0.394 | 0.565 | 0.55 | 0.505 | 0.504 | 0.792 | 0.843 | 0.822 | 0.794 | 0.746 | 0.48 | 0.531 | 0.51 | 0.521 | 0.512
COR-L23 | 0.714 | 0.728 | 0.588 | 0.257 | 0.141 | 0.916 | 0.868 | 0.821 | 0.667 | 0.478 | 0.502 | 0.469 | 0.602 | 0.389 | 1.02 | 1.21 | 0.845 | 0.843 | 0.574
NCI-H1437 | 0.415 | 0.255 | 0.182 | 0.147 | 0.112 | 0.435 | 0.517 | 0.367 | 0.219 | 0.574 | 0.646 | 0.615 | 0.696 | 0.458 | 0.357 | 0.483 | 0.41 | 0.362 | 0.337
EPLC-272H | 0.419 | 0.37 | 0.327 | 0.219 | 0.254 | 0.315 | 0.318 | 0.188 | 0.259 | 0.329 |  | 0.386 | 0.382 | 0.376 | 0.292 | 0.297 | 0.264 | 0.308 | 0.288
ChaGo-K-1 | 0.917 | 0.645 | 0.68 | 0.411 | 0.471 | 0.699 | 0.844 | 0.49 | 0.415 | 0.563 | 0.544 | 0.517 | 0.601 | 0.458 | 0.789 | 0.61 | 0.547 | 0.633 | 0.624
NCI-H1666 | 0.44 | 0.403 | 0.34 | 0.258 | 0.258 | 0.568 | 0.403 | 0.404 | 0.313 | 0.815 | 0.752 | 0.692 | 0.715 | 0.623 | 0.466 | 0.38 | 0.404 | 0.311 | 0.41
HCC-44 | 0.641 | 0.644 | 0.392 | 0.176 | 0.417 | 0.662 | 0.589 | 0.653 | 0.42 | 0.892 | 0.93 | 1.01 | 0.929 | 0.989 | 0.508 | 0.607 | 0.65 | 0.506 | 0.399
RERF-LC-KJ | 0.695 | 0.527 | 0.516 | 0.431 | 0.375 | 0.556 | 0.533 | 0.568 | 0.353 | 0.71 | 0.826 | 0.617 | 0.758 | 0.585 | 0.46 | 0.618 | 0.508 | 0.507 | 0.478
LU99A | 0.289 | 0.326 | 0.334 | 0.271 | 0.231 | 0.29 | 0.339 | 0.309 | 0.28 | 0.864 | 0.745 | 0.937 | 0.806 | 0.445 | 0.361 | 0.344 | 0.308 | 0.321 | 0.267
PC-3 [JPC-3] | 0.684 | 0.746 | 0.623 | 0.387 | 0.306 | 0.72 | 0.779 | 0.768 | 0.478 | 0.846 | 0.8 |  | 0.843 | 0.755 | 0.754 | 0.831 | 0.739 | 0.798 | 0.629
